Values after ≈ are worked out from the molar mass of the structure shown. Where two headings read alike, the source gives them in different places.
Key:
advanced pancreas cancer = details: single agent, patients with advanced pancreas cancer; cited from earlier work
[1] = system: PSN1 (Human Pancreatic Carcinoma) Cell Line; test: MTS cytotoxicity of irinotecan and topotecan solutions on PSN1 cells; type: cell-based; details: for IC50: read-out: Estimated IC50 conc.
Experimental: 20,000 PSN1 cells were seeded in 96 well plates and left to adhere to the well surface overnight. The drug solutions underwent serial dilutions from 1000 μg/ml to 1×10^−8 μg/ml in cell culture media. […] After 24, 48 and 72 hrs, the cells were washed (×3) with PBS and 100 μl media was added. The MTS assay was conducted by adding 20 μl MTS solution to each well and incubating (37° C., 5% CO2) for 2 hrs. The absorbance of each well at 490 nm was determined using a Biotek plate reader.

| Structure (SMILES) | Median survival (advanced pancreas cancer) | Concentration at which a reduction in cell viability began ([1]; 24 hrs exposure) | Concentration at which a reduction in cell viability began ([1]; 48 hours) | Concentration at which an effect on cell viability began ([1]; 72 hours) | Effect on cell viability at lower concentration ([1]; <1 μg/ml, even after 72 hours) | IC50 ([1]; Homo sapiens, 24 hrs exposure) | IC50 ([1]; Homo sapiens, 48 hrs exposure) | IC50 ([1]; Homo sapiens, 72 hrs exposure) | Relative potency in reducing PSN1 cell viability [1] | Concentration needed for a reduction in cell viability below 80% ([1]; 72 hours) | viability at 0.1 µg/mL ([1]; Homo sapiens, 48 hours, 0.1 μg/ml) |
| --- | --- | --- | --- | --- | --- | --- | --- | --- | --- | --- | --- |
| O=c1[nH]cc(F)c(=O)[nH]1 [5-fluorouracil] | 4.4 months |  |  |  |  |  |  |  |  |  |  |
| CCc1c2c(nc3ccc(OC(=O)N4CCC(N5CCCCC5)CC4)cc13)-c1cc3c(c(=O)n1C2)COC(=O)[C@]3(O)CC [Irinotecan, irinotecan] |  | 100 µg/mL | 10 µg/mL | around 50 μg/ml | no detrimental effect in cell viability | 100 µg/mL (≈ 170 µM) | 35 µg/mL (≈ 59.7 µM) | 30 µg/mL (≈ 51.1 µM) |  |  |  |
| CC[C@@]1(O)C(=O)OCc2c1cc1n(c2=O)Cc2cc3c(CN(C)C)c(O)ccc3nc2-1 [Topotecan, topotecan] |  | 1 µg/mL | 0.1 µg/mL | 1e-07 µg/mL |  | 600 µg/mL (≈ 1420 µM) | 0.6 µg/mL (≈ 1.42 µM) | 0.1 µg/mL (≈ 0.237 µM) | more potent than irinotecan | 0.01 µg/mL | ~80% |
| Nc1ccn([C@@H]2O[C@H](CO)[C@@H](O)C2(F)F)c(=O)n1 [gemcitabine] | 5.7 months |  |  |  |  |  |  |  |  |  |  |
